Experimental data taken from patent US20230357334A1, “COMPOSITION OF DRUG AND WILD-TYPE CELL-PENETRATING PEPTIDE DERIVATIVE” (ALEPHOSON BIOPHARMACEUTICALS LTD., priority 2020, published 2023).
“Also recorded” adds a separate entry of the source. Read-outs that look alike come from different tables or passages of the source.

Columns and labels:
HCECs [1] = test: Endocytosis mechanism of 289WP/Ranibizumab composition (temperature, endocytosis inhibitors), HCECs; format: cell-based, human; conditions: Mixture without inhibition = 100%
Experimental: (§1) The uptake amount of 289WP-FAM or Cy5-Rani in the Mixture without inhibition is used as control (100%). Significant differences were analyzed by 1-tailed ANOVA, corrected by Dunnett's test (n=3, ^nsp>0.05, *p<0.05, **p<0.01, ***p<0.001).

ARPE-19 cells [2] = test: Endocytosis mechanism of 289WP/Ranibizumab composition (temperature, endocytosis inhibitors), ARPE-19; format: cell-based, human; conditions: Mixture without inhibition = 100%
Experimental: as §1

[3] = rabbit, in vivo
Experimental: Firstly, eye drops were prepared. […] The compositions were stored at 4° C. for later use. Before being used, the compositions were incubated for at least 24 h at 4° C., and kept standing at room temperature for 1 h.
Subsequently, the administration and tissue sampling protocol were determined. Healthy male rabbits each about 1 kg were selected, eyes of which were ensured to be normal by ophthalmic examination before the experiment. The experimental process follows the ethical specifications of experimental animals. […] Ocular tissue samples were taken at 1 h, 4 h, 8 h, 12 h and 24 h after the administration.
The ELISA plate coated with antigen (hVEGF-A165) was prepared, as well as the extracted tissues (total protein extraction solution of blood plasma, aqueous humor, vitreous humor and retina).
Significant differences were analyzed by 1-tailed ANOVA, corrected by Tukey's test (^nsp>0.05, *p<0.05, **p<0.01, compared to the Rani group).

ARPE-19 cells [4] = test: Cell uptake of Ranibizumab mediated by different polypeptides, ARPE-19; format: cell-based, human; conditions: for increase of mean fluorescence intensity compared with free antibodies: 10 μM polypeptide + 1 μM Cy5-Rani (10:1), freshly prepared, 2 h, 37° C.; for mean fluorescence intensity of cells, comparison between polypeptides: composition solutions stored at 4° C. for 7 days; for cell uptake of Ranibizumab mediated by polypeptide, comparison between polypeptides: molar ratio 10:1, freshly prepared
Experimental: (§2) Well-grown cells HCECs, ARPE-19 and HUVECs were taken and plated respectively in a 24-well plate at 1×10^4 cells/well. After incubating for 24 h, the culture solution was discarded, and solutions of different compositions of polypeptide/Cy5-Rani mixture (containing 1 μM of Cy5-Rani) were added and incubated for 2 h at 37° C. The drug solution was then discarded, and the cells were washed 3 times with 10 mM PBS (containing 0.02 mg/mL heparin sodium), collected, and resuspended in 10 mM PBS. Flow cytometer was used for detecting positive cell rate and mean fluorescence intensity, with detecting channel excitation wavelength of 638 nm and emission wavelength of 660 nm. […] 10 μM of different polypeptides were mixed with 1 μM Cy5-Rani, respectively, and incubated at 4° C. for 24 h to obtain composition solutions. Before the detection, the composition solutions were incubated at 37° C. with different cells for 2 h, or the composition solutions were stored at 4° C. for 7 days and then incubated with the cells. Flow cytometer was used for detecting the mean fluorescence intensity values of cells (Ex 638 nm/Em 660 nm).

HCECs [5] = test: Cell uptake of Ranibizumab mediated by different polypeptides, HCECs; format: cell-based, human; conditions: for increase of mean fluorescence intensity compared with free antibodies: 10 μM polypeptide + 1 μM Cy5-Rani (10:1), freshly prepared, 2 h, 37° C.; for mean fluorescence intensity of cells, comparison between polypeptides: composition solutions stored at 4° C. for 7 days; for cell uptake of Ranibizumab mediated by polypeptide, comparison between polypeptides: molar ratio 10:1, freshly prepared
Experimental: as §2

[6] = tested on: HCECs, ARPE-19 and HUVECs; test: Cell uptake of polypeptide/Ranibizumab compositions at different molar ratios; format: cell-based, human; conditions: 89WP:Ranibizumab molar ratio 5:1 to 18:1; 3 kinds of cells; 1 μM Cy5-Rani; 2 h, 37° C.
Experimental: First, Ranibizumab was fluorescently labeled. […] After the addition of 0.12 mg fluorescence labeling reagent Sulfo-Cy5-NHS, the solution was stirred and reacted overnight under the condition of 4° C.
Next, a polypeptide/Ranibizumab composition was prepared. Appropriate amount of polypeptide was weighed and dissolved by using a certain volume of commercially available Ranibizumab injection.
Well-grown cells HCECs, ARPE-19 and HUVECs were taken and plated respectively in a 24-well plate at 1×10^4 cells/well. After incubating for 24 h, the culture solution was discarded, and solutions of different compositions of polypeptide/Cy5-Rani mixture (containing 1 μM of Cy5-Rani) were added and incubated for 2 h at 37° C. The drug solution was then discarded, and the cells were washed 3 times with 10 mM PBS (containing 0.02 mg/mL heparin sodium), collected, and resuspended in 10 mM PBS. Flow cytometer was used for detecting positive cell rate and mean fluorescence intensity, with detecting channel excitation wavelength of 638 nm and emission wavelength of 660 nm.
Significance analysis was performed using One-Way ANOVA test, corrected by Tukey's test (n=3, ^nsp>0.05, *p<0.05, **p<0.01, ***p<0.001).

ARPE-19 cells [7] = test: Uptake of 89WP/nanoantibody compositions at different ratios, flow cytometry; format: cell-based, human; conditions: 89WP:nanoantibody molar ratio 5:1 to 50:1; 2 h
Experimental: 89WP/nanoantibody eye drops were prepared according to the proportion in Table 5, and incubated overnight at 4° C. for later use.
The ARPE-19 cells were plated in a 24-well plate and cultured for over 24 h. The culture solution was then discarded, and 200 μL of the drug solution and 300 μL of serum-free culture solution were added into each well. After 2 h of incubation, the drug solution was discarded, and the cells were washed 3 times with PBS, digested and resuspended in PBS. Flow cytometer was used for detecting Cy5 fluorescence signals (Ex: 645 nm, Em: 665 nm).

[8] = rabbit, in vivo; remark: listed apart in the source
Experimental: Firstly, eye drops were prepared. Polypeptide/Aflibercept composition was prepared by diluting Aflibercept (40 mg/mL) to 20 mg/mL with a commercially available Aflibercept injection solvent, dissolving polypeptide 289WP to 6.16 mg/mL with this solution, and storing at 4° C. for use. Before being used, the composition was incubated for at least 24 h at 4° C., and kept standing at room temperature for 1 h.
Next, the administration and sampling protocol were determined. Healthy male rabbits each about 1 kg were selected, eyes of which were ensured to be normal by ophthalmic examination before the experiment. The experimental process follows the ethical specifications of experimental animals. Each eye of the rabbit was dripped with 30 μL of different composition solutions containing 600 μg of Aflibercept per eye. Ocular tissue samples were taken at 1 h after administration.
Subsequently, the Aflibercept concentrations in tissues were determined. The ELISA plate coated with antigen (hVEGF-A165) was prepared, as well as the extracted tissues (total protein extraction solution of blood plasma, aqueous humor, vitreous humor and retina). […]
The concentrations of Aflibercept in tissues were measured at 1 h after administration. Significant differences were analyzed by 2-tailed unpaired t-test (^nsp>0.05, *p<0.05).

Substance | increase of mean fluorescence intensity compared with free antibodies (ARPE-19 cells [4]) [times] | mean fluorescence intensity of cells, comparison between polypeptides (ARPE-19 cells [4]) | cell uptake of Ranibizumab mediated by polypeptide, comparison between polypeptides (ARPE-19 cells [4]) | increase of mean fluorescence intensity compared with free antibodies (HCECs [5]) [times] | mean fluorescence intensity of cells, comparison between polypeptides (HCECs [5]) | cell uptake of Ranibizumab mediated by polypeptide, comparison between polypeptides (HCECs [5]) | other results
Cy5-Rani: Cy5-labeled Ranibizumab |  |  |  |  |  |  | cell uptake rate (HCECs [1]; Dynasore added): 24.4%; cell uptake rate (HCECs [1]; at 4° C.): 40.6%; cell uptake rate (HCECs [1]; chlorpromazine added): 37.8%; cell uptake rate (HCECs [1]; hypertonic sucrose added): 35.2%; cell uptake rate (ARPE-19 cells [2]; Dynasore added): 31.4%; cell uptake rate (ARPE-19 cells [2]; at 4° C.): 79.6%; cell uptake rate (ARPE-19 cells [2]; chlorpromazine added): 63.0%; cell uptake rate (ARPE-19 cells [2]; hypertonic sucrose added): 75.7%
Ranibizumab |  |  |  |  |  |  | intraocular absorption after eye drop without penetratin derivative [3]: hardly absorbed
Q2W, N9W-Penetratin (RWIKIWFQWRRMKWKK) [29WP] | 11.1 | still the highest | best effect | 13.5 | still the highest | strongest capacity; also recorded: best effect | 
Q2W, Q8W, N9W-Penetratin (RWIKIWFWWRRMKWKK) [289WP] | 11.3 | still the highest | best effect | 14.7 | still the highest | strongest capacity; also recorded: best effect | 
Q8W, N9W-Penetratin (RQIKIWFWWRRMKWKK) [89WP] |  |  |  |  |  |  | increase of 89WP-mediated uptake of antibody compared with free antibody [6]: 2.2-6.7 times; cell uptake of nanoantibody compared with nanoantibody alone (ARPE-19 cells [7]): significantly promote
Aflibercept |  |  |  |  |  |  | intraocular absorption after eye drop without penetratin derivative [8]: hardly absorbed
